In US10517867B2, “Posaconazole derivative, pharmaceutical composition and use thereof” (priority 2016, dated 2019):
Read-outs that look alike come from different tables or passages of the source.

What was measured:
[1] = Determination of solubility in deionized water (HPLC, external standard); settings: for solubility at 30 min: 25 °C, water, thermodynamic from solid
[2] = Pharmacokinetics after single intravenous administration to rats; format: in vivo, SD rats; settings: posaconazole in saline solution as a control, tail vein
Experimental: Administration amount: 2.5 mg/kg (calculated as posaconazole)
Administration volume: 2.5 ml/kg
Drug concentration: 1 mg/mL
Administration vehicle: normal saline
Administration route: tail vein injection
Experimental animals: SD rats, SPF grade, weighing 180-220 g, equal amount of male and female. Rats were randomly divided into groups of 6 with 3 males and 3 females.
Experimental protocol: blood samples were collected at different time points after tail vein administration and plasma posaconazole concentrations were measured.

[3] = system: Candida albicans ATCC10231; assay: Systemic fungal infection in mice, intragastric administration; format: in vivo, ICR mice; settings: for responders at 20 mg/kg: Candida albicans, ATCC10231, po
[4] = system: Aspergillus Fumigutus (AF) strains; assay: Aspergillus fumigatus keratitis in rats, intravenous administration; settings: 10 mg/kg tail vein once daily for 5 days; mean ± SD of 10 rats
[5] = system: Aspergillus fumigatus AF293; assay: Lung Aspergillus fumigatus infection in immunosuppressed mice, intravenous administration; settings: for responders at 20 mg/kg: Aspergillus fumigatus, AF293, in Mus musculus, iv; for lung fungal load: mouse lung tissue, seven days later, mean ± SD
Experimental: ICR male mice were injected intraperitoneally with cyclophosphamide 150 mg/kg and injected subcutaneously with dexamethasone 150 mg/kg for 10 consecutive days. At the same time, the blood was taken to measure the changes of peripheral white blood cells and neutrophils, and mice with neutrophils consistently lower than 100/μl were selected as successfully immunosuppressed mice. Immediately after the last injection, the mice were anesthetized with ethyl ether, and mice were transferred from the initial state of excitement to inhibition. After their bodies were relaxed, the mice were immediately taken. Left hand was used to grasp the mouse to make it stand upright, the middle finger pressed the mouth so that it could breath only with the nose, and the ring finger gently pressed the abdomen to move the diaphragm muscle upward. 30 μl of conidia suspension (Aspergillus fumigatus AF293, 3×10^6 conidia) was sent to the nostrils of the anesthetized mice by a micropipette to allow spontaneous inhalation. After the mouse returned to normal breathing, it was returned to the cage. […] The death of the mice was observed and the survival time was recorded. Seven days later, the mice were sacrificed and their lung tissues were taken to observe the fungal loads of Aspergillus fumigatus in the lungs of the mice.

[6] = system: Candida albicans ATCC10231; assay: Candida albicans vaginitis in mice, intravenous administration; settings: logarithm of the CFU values, mean ± SD of 20 mice; for vaginal fungal load of mice, day 5: 20 mg/kg tail vein once a day for 5 days, day 5 after infection; for vaginal fungal load of mice, day 3: 20 mg/kg tail vein once a day, day 3 after infection
Experimental: KM mice, weighing 18-22 g, female, provided by Hubei Experimental Animal Center.
The standard strain of Candida albicans was purchased from the American Type Culture
Collection, strain number ATCC10231.
Prior to being infected with Candida albicans, animals in each group were given subcutaneous injections of 0.5 ml of estradiol benzoate (2 mg/ml) for 6 consecutive days to allow them to enter the estrus phase. Injections were continued once every 2 days until the completion of the experiment. After 6 days, 20 μl of Candida albicans solution in a concentration of 3.5×10^6 CFU/ml was injected vaginally into each mouse, causing a vaginal infection model. From the first day after infection, each group of animals was given 20 mg/kg of the corresponding drug (calculated as posaconazole) in the tail vein at an administration volume of 0.1 ml/10 g once a day for 5 consecutive days. The model group was given an equal volume of solvent (physiological saline). On the 3rd and 5th days after infection, the vagina of mice were wiped with sterile cotton swabs. The cotton swabs were soaked in 0.9 ml physiological saline. The fungal solutions were diluted to 10-fold increments to give a series of concentrations, and then 100 μl of each concentration of the bacteria solutions was taken and inoculated on Sabourand's dextrose agar solid medium containing 0.5% (W/V) chloramphenicol to observe the fungal load of Candida albicans on the vagina.

[7] = system: Candida albicans ATCC10231; assay: Candida albicans vaginitis in mice, intragastric administration; format: in vivo, KM mice; settings: logarithm of the CFU values, mean ± SD of 20 mice; for vaginal fungal load of mice, day 15: 20 mg/kg intragastric once a day for 15 days; for vaginal fungal load of mice, day 3 / vaginal fungal load of mice, day 5 / vaginal fungal load of mice, day 7 / vaginal fungal load of mice, day 11: 20 mg/kg intragastric once a day
[8] = system: Aspergillus fumigatus AF293; assay: Lung Aspergillus fumigatus infection in immunosuppressed mice, intragastric administration; settings: mouse lung tissue, seven days later, 20 mg/kg intragastric once daily for 5 days, mean ± SD
Experimental: Aspergillus fumigatus AF293, from the Guangdong Provincial Microbial Culture Collection Center.
ICR male mice were injected intraperitoneally with cyclophosphamide 150 mg/kg and injected subcutaneously with dexamethasone 150 mg/kg for 10 consecutive days. At the same time, the blood was taken to measure the changes of peripheral white blood cells and neutrophils, and mice with neutrophils consistently lower than 100/μl were selected as successfully immunosuppressed mice. Immediately after the last injection, the mice were anesthetized with ethyl ether, and mice were transferred from the initial state of excitement to inhibition. After their bodies were relaxed, the mice were immediately taken. Left hand was used to grasp the mouse to make it stand upright, the middle finger pressed the mouth so that it could breath only with the nose, and the ring finger gently pressed the abdomen to move the diaphragm muscle upward. 30 μl of conidia suspension (Aspergillus fumigatus AF293, 3×10^6 conidia) was sent to the nostrils of the anesthetized mice by a micropipette to allow spontaneous inhalation. After the mouse returned to normal breathing, it was returned to the cage. […] Seven days later, the mice were sacrificed and their lung tissues were taken to observe the fungal loads of Aspergillus fumigatus in the lungs of the mice.

physchem = settings: 25 °C, water, thermodynamic from solid
[9] = In vitro metabolic stability in human plasma; format: in vitro ADME; settings: human, plasma, 37° C., 10 μM compound, read-out: Human plasma T1/2
Outline: (§1)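 Human or rat plasma, preincubated 5 min at 37 °C, or intestinal S9 at 37 °C, spiked from 1 mM stock; triplicates sampled at 1, 2, 5, 15 and 30 min into cold internal standard. HPLC quantitation; half-life by non-compartmental analysis.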

[10] = In vitro metabolic stability in rat intestine S9; format: in vitro ADME; settings: rat, pH 7.4; 37° C., 10 μM compound, 1 mg/mL S9, NADPH regeneration system; read-out: Rat intestine S9 T1/2
Outline: as §1

[11] = In vitro metabolic stability in rat plasma; format: in vitro ADME; settings: rat, plasma, 37° C., 10 μM compound, read-out: Rat plasma T1/2
Outline: as §1

[12] = In vitro metabolic stability in human intestine S9; format: in vitro ADME; settings: human; 37° C., 10 μM compound, 1 mg/mL S9, NADPH regeneration system; read-out: Human intestine S9 T1/2
Outline: as §1

[13] = 24 h, read-out: survival rate of mice, day 1, 20 mg/kg intragastric once daily for 5 days, day 1
[14] = 48 h, read-out: survival rate of mice, day 2, 20 mg/kg intragastric once daily for 5 days, day 2
[15] = 72 h, read-out: survival rate of mice, day 3, 20 mg/kg intragastric once daily for 5 days, day 3
[16] = 96 h, read-out: survival rate of mice, day 4, 20 mg/kg intragastric once daily for 5 days, day 4
[17] = 120 h, read-out: survival rate of mice, day 5, 20 mg/kg intragastric once daily for 5 days, day 5
[18] = 144 h, read-out: survival rate of mice, day 6, 20 mg/kg intragastric once daily for 5 days, day 6
[19] = 168 h, read-out: survival rate of mice, day 7, 20 mg/kg intragastric once daily for 5 days, day 7

Which results are given for `CC[C@@H]([C@H](C)O)n1ncn(-c2ccc(N3CCN(c4ccc(OC[C@@H]5CO[C@@](Cn6cncn6)(c6ccc(F)cc6F)C5)cc4)CC3)cc2)c1=O` [Posaconazole, posaconazole]?
solubility at 30 min [1]: < 1 mg/mL; plasma posaconazole detection [2]: not detected

For `CC[C@@H]([C@H](C)O)n1ncn(-c2ccc(N3CCN(c4ccc(OC[C@@H]5CO[C@@](Cn6c[n+](C(C)OC(=O)N(C)c7ccccc7COC(=O)[C@@H](N)CCCN)cn6)(c6ccc(F)cc6F)C5)cc4)CC3)cc2)c1=O` (stereo partly shown) [ST0008], which solubility at 30 min [1] is on record?
Its solubility at 30 min is over 50 mg/mL.

What about the responders at 20 mg/kg [3, 13] of the same compound?
Its responders at 20 mg/kg is 100%.

What about the responders at 20 mg/kg [3, 14] of the same compound?
Its responders at 20 mg/kg is 90%.

And the responders at 20 mg/kg [3, 15]?
The responders at 20 mg/kg was 90%.

And the responders at 20 mg/kg [3, 16]?
Its responders at 20 mg/kg is 80%.

And the responders at 20 mg/kg [3, 17]?
Its responders at 20 mg/kg is 80%.

And the responders at 20 mg/kg [3, 18]?
The responders at 20 mg/kg was 60%.

What about the responders at 20 mg/kg [3, 19] of the same compound?
The responders at 20 mg/kg was 60%.

And the “Amount of active fungi in cornea at day 7” value [4]?
Its value is 2.59 ± 0.37 10^3 CFU/ml.

And the responders at 20 mg/kg ([5]; 24 h, read-out: survival rate of mice, day 1, 20 mg/kg tail vein once daily for 5 days, day 1)?
The responders at 20 mg/kg was 100%.

And the responders at 20 mg/kg ([5]; 48 h, read-out: survival rate of mice, day 2, 20 mg/kg tail vein once daily for 5 days, day 2)?
The responders at 20 mg/kg was 100%.

And the responders at 20 mg/kg ([5]; 72 h, read-out: survival rate of mice, day 3, 20 mg/kg tail vein once daily for 5 days, day 3)?
Its responders at 20 mg/kg is 100%.

And the responders at 20 mg/kg ([5]; 96 h, read-out: survival rate of mice, day 4, 20 mg/kg tail vein once daily for 5 days, day 4)?
Its responders at 20 mg/kg is 90%.

What about the responders at 20 mg/kg ([5]; 120 h, read-out: survival rate of mice, day 5, 20 mg/kg tail vein once daily for 5 days, day 5) of the same compound?
Its responders at 20 mg/kg is 80%.

And the responders at 20 mg/kg ([5]; 144 h, read-out: survival rate of mice, day 6, 20 mg/kg tail vein once daily for 5 days, day 6)?
Its responders at 20 mg/kg is 80%.

And the responders at 20 mg/kg ([5]; 168 h, read-out: survival rate of mice, day 7, 20 mg/kg tail vein once daily for 5 days, day 7)?
The responders at 20 mg/kg was 70%.

And the lung fungal load ([5]; 20 mg/kg tail vein once daily for 5 days)?
The lung fungal load was 2.07 ± 0.42 10^4 CFU/ml.

What about the “vaginal fungal load of mice, day 5” value [6] of the same compound?
The value was 3.86 ± 0.21.

And the “vaginal fungal load of mice, day 3” value [6]?
The value was 4.05 ± 0.25.

What about the “vaginal fungal load of mice, day 15” value [7] of the same compound?
Its value is 2.68 ± 0.18.

And the “vaginal fungal load of mice, day 3” value [7]?
Its value is 4.21 ± 0.32.

And the “vaginal fungal load of mice, day 5” value [7]?
Its value is 4.34 ± 0.47.

What about the “vaginal fungal load of mice, day 7” value [7] of the same compound?
The value was 3.85 ± 0.35.

What about the “vaginal fungal load of mice, day 11” value [7] of the same compound?
Its value is 3.31 ± 0.29.

And the lung fungal load [8]?
Its lung fungal load is 3.49 ± 0.64 10^4 CFU/ml.

Which Solubility ([1]; 25±2° C., after 30 min) does the source give for `CC[C@@H]([C@H](C)O)n1ncn(-c2ccc(N3CCN(c4ccc(OC[C@@H]5CO[C@@](Cn6c[n+](C(C)OC(=O)N(C)c7ncccc7COC(=O)[C@@H](N)CCCN)cn6)(c6ccc(F)cc6F)C5)cc4)CC3)cc2)c1=O` (stereo partly shown) [ST0011] here?
The Solubility was over 50 mg/mL.

What about the “survival rate of mice, day 1” value ([3]; 20 mg/kg intragastric once daily for 5 days, day 1) of the same compound?
The value was 100%.

What about the “survival rate of mice, day 2” value ([3]; 20 mg/kg intragastric once daily for 5 days, day 2) of the same compound?
Its value is 100%.

What about the “survival rate of mice, day 3” value ([3]; 20 mg/kg intragastric once daily for 5 days, day 3) of the same compound?
The value was 90%.

And the “survival rate of mice, day 4” value ([3]; 20 mg/kg intragastric once daily for 5 days, day 4)?
Its value is 80%.

And the “survival rate of mice, day 5” value ([3]; 20 mg/kg intragastric once daily for 5 days, day 5)?
Its value is 70%.

What about the “survival rate of mice, day 6” value ([3]; 20 mg/kg intragastric once daily for 5 days, day 6) of the same compound?
The value was 60%.

What about the “survival rate of mice, day 7” value ([3]; 20 mg/kg intragastric once daily for 5 days, day 7) of the same compound?
Its value is 60%.

And the “Amount of active fungi in cornea at day 7” value [4]?
The value was 1.79 ± 0.44 10^3 CFU/ml.

And the “survival rate of mice, day 1” value ([5]; 20 mg/kg tail vein once daily for 5 days, day 1)?
Its value is 100%.

And the “survival rate of mice, day 2” value ([5]; 20 mg/kg tail vein once daily for 5 days, day 2)?
Its value is 100%.

And the “survival rate of mice, day 3” value ([5]; 20 mg/kg tail vein once daily for 5 days, day 3)?
The value was 100%.

What about the “survival rate of mice, day 4” value ([5]; 20 mg/kg tail vein once daily for 5 days, day 4) of the same compound?
The value was 100%.

What about the “survival rate of mice, day 5” value ([5]; 20 mg/kg tail vein once daily for 5 days, day 5) of the same compound?
Its value is 90%.

What about the “survival rate of mice, day 6” value ([5]; 20 mg/kg tail vein once daily for 5 days, day 6) of the same compound?
The value was 90%.

What about the lung fungal load ([5]; 20 mg/kg tail vein once daily for 5 days, 20 mg/kg) of the same compound?
Its lung fungal load is 1.46 ± 0.27 10^4 CFU/ml.

And the “vaginal fungal load of mice, day 5” value ([6]; 20 mg/kg)?
Its value is 3.75 ± 0.47.

And the “vaginal fungal load of mice, day 3” value ([6]; 20 mg/kg)?
Its value is 4.09 ± 0.39.

What about the “vaginal fungal load of mice, day 15” value ([7]; 20 mg/kg) of the same compound?
The value was 2.81 ± 0.27.

What about the “vaginal fungal load of mice, day 3” value ([7]; 20 mg/kg) of the same compound?
Its value is 4.18 ± 0.27.

And the “vaginal fungal load of mice, day 5” value ([7]; 20 mg/kg)?
The value was 4.35 ± 0.47.

What about the “vaginal fungal load of mice, day 7” value ([7]; 20 mg/kg) of the same compound?
Its value is 3.85 ± 0.67.

What about the “vaginal fungal load of mice, day 11” value ([7]; 20 mg/kg) of the same compound?
The value was 3.29 ± 0.20.

What about the lung fungal load ([8]; 20 mg/kg) of the same compound?
Its lung fungal load is 3.47 ± 0.71 10^4 CFU/ml.

For `CC[C@@H]([C@H](C)O)n1ncn(-c2ccc(N3CCN(c4ccc(OC[C@@H]5CO[C@@](Cn6c[n+](C(C)OC(=O)OP(=O)(O)O)cn6)(c6ccc(F)cc6F)C5)cc4)CC3)cc2)c1=O.[Na+].[Na+]` (stereo partly shown) [ST0039], which Solubility (physchem) is on record?
Its Solubility is over 50 mg/mL.

With `CC[C@@H](C(C)OC(=O)OC(C)OC(=O)CCOP(=O)([O-])[O-])n1ncn(-c2ccc(N3CCN(c4ccc(OC[C@@H]5CO[C@@](Cn6cncn6)(c6ccc(F)cc6F)C5)cc4)CC3)cc2)c1=O.[Na+].[Na+]` (stereo partly shown) [ST0066] as the compound, how does the responders at 20 mg/kg [3, 13] read?
The responders at 20 mg/kg was 80%.

And the responders at 20 mg/kg [3, 14]?
Its responders at 20 mg/kg is 80%.

And the responders at 20 mg/kg [3, 15]?
Its responders at 20 mg/kg is 70%.

And the responders at 20 mg/kg [3, 16]?
The responders at 20 mg/kg was 70%.

And the responders at 20 mg/kg [3, 17]?
The responders at 20 mg/kg was 70%.

And the responders at 20 mg/kg [3, 18]?
The responders at 20 mg/kg was 60%.

And the responders at 20 mg/kg [3, 19]?
The responders at 20 mg/kg was 60%.

And the half-life at 10 µM [9]?
The half-life at 10 µM was 11.3 ± 2.27 min.

What about the half-life at 10 µM [10] of the same compound?
The half-life at 10 µM was 36.6 ± 8.66 min.

What about the Solubility (physchem) of the same compound?
Its Solubility is over 50 mg/mL.

And the half-life at 10 µM [11]?
Its half-life at 10 µM is 12.6 ± 4.54 min.

And the half-life at 10 µM [12]?
Its half-life at 10 µM is 40.4 ± 5.21 min.
